Test results reported in PMC4318582, “Chemotherapy of Second Stage Human African Trypanosomiasis: Comparison between the Parenteral Diamidine DB829 and Its Oral Prodrug DB868 in Vervet Monkeys” (PLoS Neglected Tropical Diseases, 2015).
Values joined by “and” are separate entries in the source; they are usually repeats but may differ in a detail not shown here. Equal values may be shown once. Read-outs that look alike come from different tables or passages of the source.

Tests used:
[1] = system: T. b. rhodesiense KETRI 2537; assay: Efficacy in KETRI vervet monkey model of second stage HAT; assay type: in vivo
Description: The current study used the KETRI vervet monkey model of HAT, a model developed over 30 years ago through the experimental infection of vervet monkeys with T. b. rhodesiense. […] Trypanosomes were identified in peripheral blood first and cerebrospinal fluid (CSF) second, allowing the disease to be classified into an early (haemo-lymphatic) and a late (central nervous system [CNS]) stage, similar to the human disease. […] Monkey trypanosomal infections have been determined to be invariably fatal without therapeutic intervention, a characteristic also widely accepted as true for human sleeping sickness.
Parasitaemia and CSF parasitosis were monitored using established techniques for blood trypanosomes and CSF trypanosomes, respectively.
Due to a regulated freeze on acquisitions of new non-human primates, only six monkeys were available for the IM DB829 study. These animals were divided into three treatment groups, each consisting of one male and one female, to compare dose-responsiveness between consecutive- and alternate-day dosing. Monkeys were treated with 2.5 or 5 mg/kg/day for 5 consecutive days or with 5 mg/kg/day on alternating days for a total of 5 doses (Table 1).
Twelve additional monkeys were available for the oral DB868 efficacy study. These animals were, before infection, divided into three groups, each consisting of two males and two females. DB868 was administered orally to each group at 3, 10 or 20 mg/kg/day for 10 consecutive days (Table 2).
Parasitaemia post-infection was monitored daily, using ear-prick capillary blood, through the completion of DB868 and DB829 treatment. […] At 300 days post-LDD, monkeys were considered cured if they remained normal clinically and parasite-free in the blood and CSF. Pharmacokinetic outcomes were monitored for a minimum of 60 days post-LDD as described previously. […] Monkeys that relapsed, characterized by trypanosome recrudescence in the blood or CSF, were rescue-treated with melarsoprol.

[2] = Plasma pharmacokinetics in infected vervet monkeys (HPLC-MS/MS); assay type: in vivo, vervet monkey; conditions: for AUClast: last measurable concentration varied (112–490 days); for CL/F: read-out: Cl/F (apparent clearance) (converted)
Description: (§1) Parasitaemia post-infection was monitored daily, using ear-prick capillary blood, through the completion of DB868 and DB829 treatment. Following the last drug dose (LDD), blood and CSF samples were examined for trypanosomes at 1, 4, 7, and 14 days to determine the end of treatment (EoT) response; monkeys which were positive for trypanosomes in either blood or CSF at the end of this 14-day period were classified as treatment failures/not cured while those that were free of trypanosomes were classified as provisionally cured. After the 14-day EoT evaluations, parasitaemia examinations were continued twice weekly to ≥ 300 days post-LDD as described previously. Additionally, physical examinations and haematological assessments were carried out once weekly up to 28 days post-LDD, once every two weeks between 28 and 100 days post-LDD, and monthly thereafter until the end of the study as described previously. At 300 days post-LDD, monkeys were considered cured if they remained normal clinically and parasite-free in the blood and CSF. Pharmacokinetic outcomes were monitored for a minimum of 60 days post-LDD as described previously. To facilitate the collection of blood and CSF for these assessments, the monkeys were anaesthetised with an IM injection of ketamine HCl (10–15 mg/kg) and diazepam (0.5 mg/kg). Monkeys that relapsed, characterized by trypanosome recrudescence in the blood or CSF, were rescue-treated with melarsoprol. Melarsoprol (Mel B), supplied by the World Health Organization as a 3.6% (w/v) solution in propylene glycol, was administered intravenously at 3.6 mg/kg/day for 4 consecutive days.
Plasma samples were processed for quantification of DB868 and DB829 by high performance liquid chromatography-tandem mass spectrometry (HPLC-MS/MS) as described previously. CSF samples were processed in a manner similar to that of plasma samples.
Clinical and haematological data were analysed using Statview for Windows Version 5.0.1 (1995–1998; SAS Institute Inc., Cary, NC, USA). Repeated measures ANOVA, with Fisher’s PLSD post hoc test, was used to test the effect of trypanosome infection on haematologic parameters in comparison with respective baseline values (α = 0.05). In addition, the effects of IM DB829 and oral DB868 on these haematologic parameters in monkeys with confirmed second stage HAT were tested. Pharmacokinetic outcomes were recovered using traditional non-compartmental methods using Phoenix WinNonlin (version 6.2; Pharsight, Mountain View, CA, USA).

[3] = Tolerability of dose regimens in infected vervet monkeys; assay type: in vivo, vervet monkey; conditions: all IM DB829 and oral DB868 dose regimens
Description: as §1, with “Monkeys that relapsed, characterized by trypanosome recrudescence in the blood or CSF, were rescue-treated with melarsoprol. Melarsoprol (Mel B), supplied by the World Health Organization as a 3.6% (w/v) solution in propylene glycol, was administered intravenously at 3.6 mg/kg/day for 4 consecutive days.” left out

[4] = system: T. b. rhodesiense STIB900; parameters: method as in PMID 19620327; conditions: read-out: in vitro IC50; cited from earlier work
T. b. brucei GVR35 = system: T. b. brucei GVR35; parameters: method as in PMID 19620327; conditions: cited from earlier work
[5] = IM 2.5mg/kg × 5 days, monkeys 546M, 693F
[6] = IM 5 mg/kg × 5 alternate days, monkeys 668M, 676F
[7] = IM 5 mg/kg × 5 days, monkeys 569F, 659M
[8] = IM DB829 consecutive-day dosing
[9] = after 5th IM dose, Group 1 = 5 mg/kg × 5 consecutive days, 5 mg/kg
[10] = after 5th IM dose, Group 3 = 2.5 mg/kg × 5 consecutive days, 2.5 mg/kg

N=C(N)c1ccc(-c2ccc(-c3ccc(C(=N)N)cn3)o2)nc1 [DB829, 2,5-bis(5-amidino-2-pyridyl)furan]
Cured/treated ([1]; IM 2.5mg/kg × 5 days): 2/2
Final efficacy assessment at 300 days post-LDD of DB829 [1, 5]: Cured
Provisional efficacy at 100 days post-LDD of DB829 [1, 5]: Cured
Trypanosomes at EoT [1, 5]: Neg
Cured/treated ([1]; IM 5 mg/kg × 5 alternate days): 2/2
Final efficacy assessment at 300 days post-LDD of DB829 [1, 6]: Cured
Provisional efficacy at 100 days post-LDD of DB829 [1, 6]: Cured
Trypanosomes at EoT [1, 6]: Neg
Cured/treated ([1]; IM 5 mg/kg × 5 days): 1/1
Time to initial clearance of trypanosomes from body fluids (blood and CSF) ([1]; IM 5 mg/kg × 5 days, alternate-day dosing (28, 30, 30, 32, 34 and 36 DPI), monkeys 668M, 676F): 1 days post-LDD
Time to initial clearance of trypanosomes from body fluids (blood and CSF) ([1]; IM 5mg/kg × 5 days, consecutive-day dosing 28–32 DPI, monkeys 569F, 659M): 1 days post-LDD
Final efficacy assessment at 300 days post-LDD of DB829 ([1]; IM 5 mg/kg × 5 days, monkey 569F (659M withdrawn)): Cured
Provisional efficacy at 100 days post-LDD of DB829 [1, 7]: Cured
Trypanosomes at EoT [1, 7]: Neg
Time to initial clearance of trypanosomes from body fluids (blood and CSF) ([1]; IM, monkeys 546M, 693F, Table 3 prints 5mg/kg × 5 days, consecutive-day dosing 28–32 DPI (text: 2.5 mg/kg/day)): 4 days post-LDD and 7 days post-LDD
Final efficacy assessment at 300 days post-LDD of DB829, Overall Results (final combined cure rate) ([1]; all IM DB829 regimens combined): cured all monkeys and 5/5
Provisional efficacy at 100 days post-LDD of DB829, Overall Results ([1]; all IM DB829 regimens combined): 6/6
Trypanosomes at EoT, Overall Results (provisional cure rate) ([1]; all IM DB829 regimens combined): 6/6
geometric mean plasma Cmax of DB829 relative to that after oral DB868 at 20 mg/kg/day ([2]; IM DB829 2.5 mg/kg/day): 10 times
AUC, alternate-day relative to consecutive-day dosing regimen ([2]; IM DB829 5 mg/kg/day): 5 fold
geometric mean plasma Cmax of DB829 relative to that after oral DB868 at 20 mg/kg/day ([2]; IM DB829 5 mg/kg/day, after last of 5 doses): 25 fold
terminal half-life, alternate-day relative to consecutive-day dosing regimen ([2]; IM DB829 5 mg/kg/day, 5 mg/kg/day): 4 fold and 5 fold
median plasma Tmax ([2]; IM DB829 2.5 and 5 mg/kg/day consecutive-day dose groups): 0.04 days
geometric mean AUC, 5 mg/kg/day group relative to 2.5 mg/kg/day group [2, 8]: 2.1 fold
geometric mean Cmax, 5 mg/kg/day group relative to 2.5 mg/kg/day group [2, 8]: 2.7 fold
AUC0-∞ [2, 9]: 13000 nmol·days/L and 15000 nmol·days/L
Cl/F (apparent clearance) [2, 9]: 0.528 mL/min/kg
t½ (terminal half-life) [2, 9]: 44 days
AUClast [2, 9]: 12000 nmol·days/L and 13000 nmol·days/L
t½ (terminal half-life) ([2]; after 5th IM dose, Group 2 = 5 mg/kg × 5 alternating days, 5 mg/kg): 180 days
AUC0-∞ [2, 10]: 8300 nmol·days/L and 5300 nmol·days/L
Cl/F (apparent clearance) [2, 10]: 0.694 mL/min/kg
t½ (terminal half-life) [2, 10]: 42 days
AUClast [2, 10]: 7700 nmol·days/L and 4500 nmol·days/L
geometric mean AUC0–63 of DB829 relative to single monkey of 3 mg/kg/day group ([2]; after oral DB868 10 mg/kg/day): approximately 3 fold
geometric mean AUC0–63 of DB829 relative to single monkey of 3 mg/kg/day group ([2]; after oral DB868 20 mg/kg/day): ~4 fold
CL/F ([2]; monkey, in vivo, im, 2.5 mg/kg, after 5th IM dose, Group 3 = 2.5 mg/kg × 5 consecutive days): 0.465 mL/min/kg
half-life ([2]; monkey, in vivo, im, 2.5 mg/kg, after 5th IM dose, Group 3 = 2.5 mg/kg × 5 consecutive days, read-out: t½ (terminal half-life) (converted)): 33 days
Cmax ([2]; monkey, in vivo, im, 2.5 mg/kg, plasma DB829 after 5th IM dose, Group 3 = 2.5 mg/kg × 5 consecutive days, read-out: Cmax): 4200 nM
Tmax ([2]; monkey, in vivo, im, 2.5 mg/kg, plasma DB829 after 5th IM dose, Group 3 = 2.5 mg/kg × 5 consecutive days, read-out: Tmax (converted)): 0.04 days
CL/F ([2]; monkey, in vivo, im, 5 mg/kg, after 5th IM dose, Group 1 = 5 mg/kg × 5 consecutive days): 0.59 mL/min/kg
half-life ([2]; monkey, in vivo, im, 5 mg/kg, after 5th IM dose, Group 1 = 5 mg/kg × 5 consecutive days, read-out: t½ (terminal half-life) (converted)): 34 days
half-life ([2]; monkey, in vivo, im, 5 mg/kg, after 5th IM dose, Group 2 = 5 mg/kg × 5 alternating days, read-out: t½ (terminal half-life) (converted)): 130 days
Cmax ([2]; monkey, in vivo, im, 5 mg/kg, plasma DB829 after 5th IM dose, Group 1 = 5 mg/kg × 5 consecutive days, read-out: Cmax): 12000 nM
Tmax ([2]; monkey, in vivo, im, 5 mg/kg, plasma DB829 after 5th IM dose, Group 1 = 5 mg/kg × 5 consecutive days, read-out: Tmax (converted)): 0.04 days
Cmax ([2]; monkey, in vivo, im, 5 mg/kg, plasma DB829 after 5th IM dose, Group 2 = 5 mg/kg × 5 alternating days, read-out: Cmax): 16000 nM
Tmax ([2]; monkey, in vivo, im, 5 mg/kg, plasma DB829 after 5th IM dose, Group 2 = 5 mg/kg × 5 alternating days, read-out: Tmax (converted)): 0.04 days
half-life ([2]; monkey, in vivo, im, IM DB829 consecutive-day dosing regimens, read-out: geometric mean (range) terminal half-life (t½) (converted)): 38 days
Cmax ([2]; monkey, in vivo, po, 3 mg/kg/day, after oral DB868 3 mg/kg/day, read-out: Geometric mean Cmax (range) of DB829): 85 nM
Cmax ([2]; monkey, in vivo, po, 3 mg/kg/day, plasma DB829 after the 10th oral dose of DB868, 3 mg/kg × 10 days, read-out: Cmax): 60 nM
Cmax ([2]; monkey, in vivo, po, 10 mg/kg/day, after oral DB868 10 mg/kg/day, read-out: Geometric mean Cmax (range) of DB829): 270 nM
Cmax ([2]; monkey, in vivo, po, 10 mg/kg/day, plasma DB829 after the 10th oral dose of DB868, 10 mg/kg × 10 days, read-out: Cmax): 410 nM
half-life ([2]; monkey, in vivo, po, 10 mg/kg/day, plasma DB829 after the 10th oral dose of DB868, 10 mg/kg × 10 days, read-out: t½ (converted)): 120 days
Cmax ([2]; monkey, in vivo, po, 20 mg/kg/day, after oral DB868 20 mg/kg/day, read-out: Geometric mean Cmax (range) of DB829): 530 nM
Cmax ([2]; monkey, in vivo, po, 20 mg/kg/day, plasma DB829 after the 10th oral dose of DB868, 20 mg/kg × 10 days, read-out: Cmax): 460 nM
Tmax ([2]; monkey, in vivo, po, after oral DB868, three treatment groups, read-out: Median plasma Tmax for DB829 (converted)): 0.33 days
Tmax ([2]; monkey, in vivo, po, after oral DB868, three treatment groups, read-out: range of plasma Tmax for DB829): 0.04 to 2 days
half-life ([2]; monkey, in vivo, po, given IM or orally as DB868, range over monkeys, read-out: half-life for DB829): 33 to 180 days
Cmax ([2]; plasma DB829 after 5th IM dose, Group 1 = 5 mg/kg × 5 consecutive days, 5 mg/kg, read-out: Cmax): 15000 nM
Cmax ([2]; plasma DB829 after 5th IM dose, Group 2 = 5 mg/kg × 5 alternating days, 5 mg/kg, read-out: Cmax): 8900 nM
Cmax ([2]; plasma DB829 after 5th IM dose, Group 3 = 2.5 mg/kg × 5 consecutive days, 2.5 mg/kg, read-out: Cmax): 5900 nM
Tmax ([2]; plasma DB829 after the 10th oral dose of DB868, 3 mg/kg × 10 days): 0.33 days
AUC0–63 ([2]; plasma DB829 after the 10th oral dose of DB868, 3 mg/kg × 10 days, 0 to 63 days): 1800 nmol·days/L
Cmax ([2]; plasma DB829 after the 10th oral dose of DB868, 3 mg/kg × 10 days, read-out: Cmax): 110 nM
Cmax ([2]; plasma DB829 after the 10th oral dose of DB868, 10 mg/kg × 10 days, read-out: Cmax): 340 nM
Cmax ([2]; plasma DB829 after the 10th oral dose of DB868, 20 mg/kg × 10 days, read-out: Cmax): 630 nM and 500 nM
tolerability of dose regimens [3]: well tolerated
IC50 [4]: 0.014 µM
efficacy in the murine model of second stage HAT (T. b. brucei GVR35): fully curative
